Reference: the supplement of paper PMC4862054

Tested on: HCC1599
Assay: normalised response (% of control), CellTiter-Glo; higher = more viable cells (100 = DMSO, 0 = benzethonium chloride kill control)
Conditions: incubation time: 72 h
How it was run: (§1)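 Each value is the plate-normalised signal at one concentration of the series. Breast cancer cell lines (20 µl suspension) were incubated 72 h in 384-well plates with compound at 5 concentrations in 10-fold steps over a compound-specific 10,000-fold range. CellTox Green and then CellTiter-Glo were read, and each plate was scaled to 0.1 % DMSO (100) and a positive kill control (0).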

**Q.** For `CC[C@H](CO)Nc1nc(NCc2ccccc2)c2ncn(C(C)C)c2n1` [Seliciclib] (10 nM), which normalised response is on record?
**A.** 103%

**Q.** Which normalised response does the source give for `O=[N+]([O-])c1ccc2c(c1)S(=O)(=O)C=C2` [Stattic] (50 nM) here?
**A.** 110%

**Q.** With `O=C(CCCCCCC(=O)Nc1ccccc1)NO` [Vorinostat] (10 nM) as the molecule, how does the normalised response read?
**A.** 102%

Tested on: CAL-51
Assay: as above
Conditions: incubation time: 72 h
How it was run: as §1

**Q.** With `CCn1c(C(=O)N(C2CC2)C2CC2)cc2c3c(ncn3C)c(Nc3cc(C)n(C)n3)nc21` (1 nM) as the molecule, how does the normalised response read?
**A.** 135%

**Q.** With `CCn1c(C(=O)N(C2CC2)C2CC2)cc2c3c(ncn3C)c(Nc3cc(C)n(C)n3)nc21` (10 nM) as the molecule, how does the normalised response read?
**A.** 85.3%

**Q.** For `COc1ccc(S(=O)(=O)Nc2cccnc2Nc2ccc(O)cc2)cc1` [ABT-751] (10 nM), which normalised response is on record?
**A.** 117%

**Q.** Which normalised response does the source give for `CN[C@@H](C)C(=O)N[C@H]1CN(C(=O)CC(C)C)CC[C@H]2CC[C@@H](C(=O)NC(c3ccccc3)c3ccccc3)N2C1=O` [AT-406] (1 nM) here?
**A.** 125%

**Q.** `CN[C@@H](C)C(=O)N[C@H]1CN(C(=O)CC(C)C)CC[C@H]2CC[C@@H](C(=O)NC(c3ccccc3)c3ccccc3)N2C1=O` [AT-406] (10 nM) was tested. Which normalised response did it give?
**A.** 126%

**Q.** Which normalised response does the source give for `Cc1cc(Nc2nc(N[C@@H](C)c3ncc(F)cn3)ncc2Cl)[nH]n1` [AZD1480] (1 nM) here?
**A.** 113%

**Q.** For `CNC(=O)c1ccccc1Sc1ccc2c(/C=C/c3ccccn3)n[nH]c2c1` [Axitinib] (10 nM), which normalised response is on record?
**A.** 121%

**Q.** For `CC(O)(CS(=O)(=O)c1ccc(F)cc1)C(=O)Nc1ccc(C#N)c(C(F)(F)F)c1` (centres undefined) [Bicalutamide] (10 nM), which normalised response is on record?
**A.** 105%

**Q.** How did the normalised response turn out when `CCNC(=O)CCC/C=C\C[C@@H]1[C@@H](/C=C/[C@@H](O)CCc2ccccc2)[C@H](O)C[C@@H]1O` [Bimatoprost] (5.5 nM) was run?
**A.** 106%

**Q.** For `COc1cc(Nc2c(C#N)cnc3cc(OCCCN4CCN(C)CC4)c(OC)cc23)c(Cl)cc1Cl` [Bosutinib] (10 nM), which normalised response is on record?
**A.** 92.3%

**Q.** With `CCN(CC)CCCC(C)Nc1ccnc2cc(Cl)ccc12` (centres undefined) [Chloroquine] (10 nM) as the molecule, how does the normalised response read?
**A.** 126%

**Q.** Which normalised response does the source give for `CC1(COc2ccc3c(c2)ncn3-c2ccc3cccc(N4CCC(N)CC4)c3n2)COC1` [Crenolanib] (10 nM) here?
**A.** 90.6%

**Q.** With `CC(C)(C)c1nc(-c2cccc(NS(=O)(=O)c3c(F)cccc3F)c2F)c(-c2ccnc(N)n2)s1` [Dabrafenib] (2.5 nM) as the molecule, how does the normalised response read?
**A.** 109%

**Q.** `Nc1ccn([C@@H]2O[C@H](CO)[C@@H](O)C2(F)F)c(=O)n1` [Gemcitabine] (1 nM) was tested. Which normalised response did it give?
**A.** 66%

**Q.** How did the normalised response turn out when `O=C(O)CNC(=O)c1c(O)c2ccccc2n(Cc2ccccc2)c1=O` [IOX-2] (50 nM) was run?
**A.** 88%

**Q.** With `CC(=O)[C@]1(O)Cc2c(O)c3c(c(O)c2[C@@H](O[C@H]2C[C@H](N)[C@H](O)[C@H](C)O2)C1)C(=O)c1ccccc1C3=O` [Idarubicin] (1 nM) as the molecule, how does the normalised response read?
**A.** 91.5%

**Q.** `C/C(=C\c1csc(C)n1)[C@@H]1C[C@@H]2O[C@]2(C)CCC[C@H](C)[C@H](O)[C@@H](C)C(=O)C(C)(C)[C@@H](O)CC(=O)N1` [Ixabepilone] (1 nM) was tested. Which normalised response did it give?
**A.** 129%

**Q.** For `CN(C)C(=N)NC(=N)N` [Metformin] (100 nM), which normalised response is on record?
**A.** 117%

**Q.** `CC[C@H](CO)Nc1nc(NCc2ccccc2)c2ncn(C(C)C)c2n1` [Seliciclib] (10 nM) was tested. Which normalised response did it give?
**A.** 113%

**Q.** `O=[N+]([O-])c1ccc2c(c1)S(=O)(=O)C=C2` [Stattic] (50 nM) was tested. Which normalised response did it give?
**A.** 107%

**Q.** For `O=C(CCCCCCC(=O)Nc1ccccc1)NO` [Vorinostat] (10 nM), which normalised response is on record?
**A.** 117%

Tested on: CAL-85-1
Assay: as above
Conditions: incubation time: 72 h
How it was run: as §1

**Q.** With `CCn1c(C(=O)N(C2CC2)C2CC2)cc2c3c(ncn3C)c(Nc3cc(C)n(C)n3)nc21` (1 nM) as the molecule, how does the normalised response read?
**A.** 105%

**Q.** How did the normalised response turn out when `CCn1c(C(=O)N(C2CC2)C2CC2)cc2c3c(ncn3C)c(Nc3cc(C)n(C)n3)nc21` (10 nM) was run?
**A.** 101%

**Q.** Which normalised response does the source give for `COc1ccc(S(=O)(=O)Nc2cccnc2Nc2ccc(O)cc2)cc1` [ABT-751] (10 nM) here?
**A.** 97.5%

**Q.** For `CN[C@@H](C)C(=O)N[C@H]1CN(C(=O)CC(C)C)CC[C@H]2CC[C@@H](C(=O)NC(c3ccccc3)c3ccccc3)N2C1=O` [AT-406] (1 nM), which normalised response is on record?
**A.** 96.8%

**Q.** `CN[C@@H](C)C(=O)N[C@H]1CN(C(=O)CC(C)C)CC[C@H]2CC[C@@H](C(=O)NC(c3ccccc3)c3ccccc3)N2C1=O` [AT-406] (10 nM) was tested. Which normalised response did it give?
**A.** 97.8%

**Q.** Which normalised response does the source give for `Cc1cc(Nc2nc(N[C@@H](C)c3ncc(F)cn3)ncc2Cl)[nH]n1` [AZD1480] (1 nM) here?
**A.** 98.4%

**Q.** With `CNC(=O)c1ccccc1Sc1ccc2c(/C=C/c3ccccn3)n[nH]c2c1` [Axitinib] (10 nM) as the molecule, how does the normalised response read?
**A.** 102%

**Q.** How did the normalised response turn out when `CC(O)(CS(=O)(=O)c1ccc(F)cc1)C(=O)Nc1ccc(C#N)c(C(F)(F)F)c1` (centres undefined) [Bicalutamide] (10 nM) was run?
**A.** 106%

**Q.** How did the normalised response turn out when `CCNC(=O)CCC/C=C\C[C@@H]1[C@@H](/C=C/[C@@H](O)CCc2ccccc2)[C@H](O)C[C@@H]1O` [Bimatoprost] (5.5 nM) was run?
**A.** 96.1%

**Q.** With `COc1cc(Nc2c(C#N)cnc3cc(OCCCN4CCN(C)CC4)c(OC)cc23)c(Cl)cc1Cl` [Bosutinib] (10 nM) as the molecule, how does the normalised response read?
**A.** 94.6%

**Q.** For `CCN(CC)CCCC(C)Nc1ccnc2cc(Cl)ccc12` (centres undefined) [Chloroquine] (10 nM), which normalised response is on record?
**A.** 99.8%

**Q.** Which normalised response does the source give for `CC1(COc2ccc3c(c2)ncn3-c2ccc3cccc(N4CCC(N)CC4)c3n2)COC1` [Crenolanib] (10 nM) here?
**A.** 99.2%

**Q.** For `CC(C)(C)c1nc(-c2cccc(NS(=O)(=O)c3c(F)cccc3F)c2F)c(-c2ccnc(N)n2)s1` [Dabrafenib] (2.5 nM), which normalised response is on record?
**A.** 99%

**Q.** Which normalised response does the source give for `Nc1ccn([C@@H]2O[C@H](CO)[C@@H](O)C2(F)F)c(=O)n1` [Gemcitabine] (1 nM) here?
**A.** 101%

**Q.** For `O=C(O)CNC(=O)c1c(O)c2ccccc2n(Cc2ccccc2)c1=O` [IOX-2] (50 nM), which normalised response is on record?
**A.** 97.1%

**Q.** Which normalised response does the source give for `CC(=O)[C@]1(O)Cc2c(O)c3c(c(O)c2[C@@H](O[C@H]2C[C@H](N)[C@H](O)[C@H](C)O2)C1)C(=O)c1ccccc1C3=O` [Idarubicin] (1 nM) here?
**A.** 103%

**Q.** `C/C(=C\c1csc(C)n1)[C@@H]1C[C@@H]2O[C@]2(C)CCC[C@H](C)[C@H](O)[C@@H](C)C(=O)C(C)(C)[C@@H](O)CC(=O)N1` [Ixabepilone] (1 nM) was tested. Which normalised response did it give?
**A.** 99.8%

**Q.** For `CN(C)C(=N)NC(=N)N` [Metformin] (100 nM), which normalised response is on record?
**A.** 95.7%

**Q.** For `CC[C@H](CO)Nc1nc(NCc2ccccc2)c2ncn(C(C)C)c2n1` [Seliciclib] (10 nM), which normalised response is on record?
**A.** 108%

**Q.** Which normalised response does the source give for `O=[N+]([O-])c1ccc2c(c1)S(=O)(=O)C=C2` [Stattic] (50 nM) here?
**A.** 96.5%

**Q.** How did the normalised response turn out when `O=C(CCCCCCC(=O)Nc1ccccc1)NO` [Vorinostat] (10 nM) was run?
**A.** 105%

Tested on: HCC1143
Assay: as above
Conditions: incubation time: 72 h
How it was run: as §1

**Q.** For `CCn1c(C(=O)N(C2CC2)C2CC2)cc2c3c(ncn3C)c(Nc3cc(C)n(C)n3)nc21` (1 nM), which normalised response is on record?
**A.** 100%

**Q.** Which normalised response does the source give for `CCn1c(C(=O)N(C2CC2)C2CC2)cc2c3c(ncn3C)c(Nc3cc(C)n(C)n3)nc21` (10 nM) here?
**A.** 104%

**Q.** `COc1ccc(S(=O)(=O)Nc2cccnc2Nc2ccc(O)cc2)cc1` [ABT-751] (10 nM) was tested. Which normalised response did it give?
**A.** 106%

**Q.** `CN[C@@H](C)C(=O)N[C@H]1CN(C(=O)CC(C)C)CC[C@H]2CC[C@@H](C(=O)NC(c3ccccc3)c3ccccc3)N2C1=O` [AT-406] (1 nM) was tested. Which normalised response did it give?
**A.** 109%
